Measured values reported in PMC5693303 (Journal of medicinal chemistry, 2016).
Marks after values point to notes of the source that are not given here.

What was measured:
hMOR = hMOR (Homo sapiens, UniProt P35372); assay: Radioligand competition binding, [^3H]diprenorphine or [^3H]DAMGO; conditions: [^3H]diprenorphine, Kd = 2.81 nM; NC = no competition
KOR [1] = molecular target: KOR (Mus musculus, UniProt P33534); assay: Tail flick test, pretreatment before KOR agonist 17; assay type: in vivo, mice; conditions: 10 µg in 5 µL l.p., 15 min before 17 (10 µg)
Chain of KOR (Mus musculus, UniProt P33534) (P33534 whole entry): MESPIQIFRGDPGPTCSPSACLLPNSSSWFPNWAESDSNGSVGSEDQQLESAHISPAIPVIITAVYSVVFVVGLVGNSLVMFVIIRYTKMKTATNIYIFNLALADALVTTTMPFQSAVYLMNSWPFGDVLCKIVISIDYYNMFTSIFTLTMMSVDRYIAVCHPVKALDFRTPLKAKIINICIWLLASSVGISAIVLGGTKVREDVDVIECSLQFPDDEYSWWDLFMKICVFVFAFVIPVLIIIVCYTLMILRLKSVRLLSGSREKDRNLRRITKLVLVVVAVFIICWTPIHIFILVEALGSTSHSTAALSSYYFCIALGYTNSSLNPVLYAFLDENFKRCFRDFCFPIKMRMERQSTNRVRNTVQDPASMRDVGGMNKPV

[2] = Tail flick test, 52 °C water, compound alone
KOR [3] = molecular target: KOR (Cavia porcellus, UniProt P41144); assay: GPI/LMMP assay, inhibition of electrically stimulated muscle contraction; assay type: cell-based, guinea pig
Chain of KOR (Cavia porcellus, UniProt P41144) (P41144 whole entry): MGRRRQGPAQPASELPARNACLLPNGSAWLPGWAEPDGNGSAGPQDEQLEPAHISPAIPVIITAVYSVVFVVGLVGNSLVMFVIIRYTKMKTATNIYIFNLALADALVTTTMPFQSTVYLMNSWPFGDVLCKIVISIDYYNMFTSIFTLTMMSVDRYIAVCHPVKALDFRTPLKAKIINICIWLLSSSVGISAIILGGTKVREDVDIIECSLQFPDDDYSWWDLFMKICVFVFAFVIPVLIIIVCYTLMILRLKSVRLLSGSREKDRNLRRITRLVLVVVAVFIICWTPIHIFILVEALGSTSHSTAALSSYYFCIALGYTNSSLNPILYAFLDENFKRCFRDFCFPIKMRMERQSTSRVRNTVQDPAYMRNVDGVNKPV

KOR [4] = molecular target: KOR (Homo sapiens, UniProt P41145); assay: [^35S]GTPγS assay, agonist mode; assay type: biochemical; conditions: 10 µM, KOR-CHO cells, compared to vehicle
Chain of KOR (Homo sapiens, UniProt P41145) (P41145 whole entry): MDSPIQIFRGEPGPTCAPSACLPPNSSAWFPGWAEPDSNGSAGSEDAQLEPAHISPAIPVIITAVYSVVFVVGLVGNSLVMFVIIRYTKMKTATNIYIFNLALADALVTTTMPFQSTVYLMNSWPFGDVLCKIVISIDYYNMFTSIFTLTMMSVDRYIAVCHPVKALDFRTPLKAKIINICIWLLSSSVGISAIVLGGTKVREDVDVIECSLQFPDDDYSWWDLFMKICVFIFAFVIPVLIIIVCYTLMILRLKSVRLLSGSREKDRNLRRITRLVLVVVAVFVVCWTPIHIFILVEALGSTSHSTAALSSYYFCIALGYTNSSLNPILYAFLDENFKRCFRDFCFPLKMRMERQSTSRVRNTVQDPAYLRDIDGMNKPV

Chain of hMOR (P35372 whole entry): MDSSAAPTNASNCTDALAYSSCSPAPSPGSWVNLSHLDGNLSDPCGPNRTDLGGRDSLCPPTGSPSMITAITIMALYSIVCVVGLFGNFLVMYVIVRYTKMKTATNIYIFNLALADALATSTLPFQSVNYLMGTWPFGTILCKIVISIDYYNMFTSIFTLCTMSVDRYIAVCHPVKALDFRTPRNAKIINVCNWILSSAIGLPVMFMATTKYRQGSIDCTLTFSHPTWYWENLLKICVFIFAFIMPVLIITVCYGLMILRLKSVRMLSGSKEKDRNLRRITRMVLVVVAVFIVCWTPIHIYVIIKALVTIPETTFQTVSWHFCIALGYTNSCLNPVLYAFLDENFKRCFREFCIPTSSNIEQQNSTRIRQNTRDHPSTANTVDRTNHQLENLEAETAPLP

With Ac-YGPFLRIRPK-NH2 [compound 8] the Ki (hMOR) was “no competition”.

With H-YGPFLRIRPK-NH2 [compound 7] the “blockade of antinociceptive effect of 17” value (KOR [1]) was “significantly blocked”, the “elevation of TWL, % of max response” value ([2]; 10 µg in 5 µL i.t., 30 min) was 39.45 ± 6.95% and the “tail withdrawal latency (antinociceptive effect)” value ([2]; 0.1, 1.0 and 10 µg in 5 µL i.t., compared to vehicle) was “significantly elevated tail withdrawal latency”.

In the case of Ac-YGGFLRIRPK-NH2 [compound 5], the “percent of agonist activity” value (KOR [3]; 1 µM test compound, compared to average signal 3 min prior to drug) is reported as 0% ^b, the “agonist response in GPI/LMMP” value (KOR [3]; in words) is reported as “did not show significant responses” and the KOR activation (KOR [4]) is reported as “did not show KOR activation”.

With H-YGGFLRIRPK-NH2 [compound 3] the KOR activation (KOR [4]) was “significant activation”.
